In patent US9079866B2, “Flap modulators” (JANSSEN PHARMACEUTICA NV, priority 2013, dated 2015):
Structures can show the parent of a compound that is named as a salt.

What follows are compounds tested against human FLAP (Homo sapiens (Human), UniProt P20292) (assay: FLAP binding assay (HTRF format)). Conditions: human FLAP wild type, HTRF format; average of two plates, duplicates.
Protocol: The ability of the compounds of the present invention to treat a FLAP-mediated disease and/or disorder, or associated symptoms or complications thereof, was determined using the following procedures. Binding assay data represent the average value obtained from two different assay plates, with samples run in duplicate on each plate. Human whole blood assay data represent a single replicate on an assay plate using whole blood from at least one healthy donor.
Data are expressed as a HTRF ratio.

Sequence of human FLAP (P20292 whole entry): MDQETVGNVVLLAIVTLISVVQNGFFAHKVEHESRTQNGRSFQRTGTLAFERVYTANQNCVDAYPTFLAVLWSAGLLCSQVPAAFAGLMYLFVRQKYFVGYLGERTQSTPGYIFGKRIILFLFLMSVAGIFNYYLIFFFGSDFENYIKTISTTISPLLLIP

| Ki | Compound |
| --- | --- |
| 746 nM | Nc1ncc(-c2ccc(-c3ccccc3S(=O)(=O)C3CCS(=O)(=O)CC3)cc2F)cn1 [Example 316, 5-{2′-[(1,1-Dioxidotetrahydro-2H-thiopyran-4-yl)sulfonyl]-3-fluorobiphenyl-4-yl}pyrimidin-2-amine hydrochloride] |
| 2500 nM | Nc1cnc(S(=O)(=O)c2ccccc2-c2ccc(-c3cnc(N)nc3)c(F)c2)nc1 [Example 339, 5-{2′-[(5-Aminopyrimidin-2-yl)sulfonyl]-3-fluorobiphenyl-4-yl}pyrimidin-2-amine hydrochloride] |
| > 10000 nM | CS(=O)(=O)c1ccccc1-c1ccc(-c2ccc(N)nc2)c(F)c1 [Example 341, 5-(3-Fluoro-2′-(methylsulfonyl)-[1,1′-biphenyl]-4-yl)pyridin-2-amine] |
| 77 nM | C[C@@H](CO)NS(=O)(=O)c1ccccc1-c1ccc(-c2ccc(N)nc2)c(F)c1 [Example 347, (S)-4′-(6-Aminopyridin-3-yl)-3′-fluoro-N-(1-hydroxypropan-2-yl)-[1,1′-biphenyl]-2-sulfonamide] |
| > 10000 nM | CC(C)Sc1ncc(C(F)(F)F)cc1-c1ccc(-c2cnc3[nH]ccc3n2)c(F)c1 [Example 394, 2-(2-Fluoro-4-{2-[(1-methylethyl)sulfanyl]-5-(trifluoromethyl)pyridin-3-yl}phenyl)-5H-pyrrolo[2,3-b]pyrazine] |

Same assay, conditions: read-out: FLAP Binding wild type HTRF Ki

| Compound | Ki |
| --- | --- |
| Nc1ncc(-c2ccc(-c3ccccc3S(=O)(=O)c3ncncc3N)cc2F)cn1 [Example 337, 5-{2′-[(5-Aminopyrimidin-4-yl)sulfonyl]-3-fluorobiphenyl-4-yl}pyrimidin-2-amine hydrochloride] | 2500 nM |

Same assay, conditions: wild type FLAP, HTRF format

| Ki | Compound |
| --- | --- |
| > 10000 nM | Fc1cc(-c2cccnc2OCC(F)(F)F)ccc1-c1cnc2[nH]ccc2n1 [Example 397, 2-{2-Fluoro-4-[2-(2,2,2-trifluoroethoxy)pyridin-3-yl]phenyl}-5H-pyrrolo[2,3-b]pyrazine] |
| > 10000 nM | Nc1cnc(-c2ccc(-c3cccnc3OCC3CCNC3)cc2F)cn1 (stereo not shown) [Example 407, 5-{2-Fluoro-4-[2-(pyrrolidin-3-ylmethoxy)pyridin-3-yl]phenyl}pyrazin-2-amine] |
| > 10000 nM | Nc1ncc(-c2ccc(-c3cccnc3N)cc2F)cn1 [Example 409, 5-[4-(2-Aminopyridin-3-yl)-2-fluorophenyl]pyrimidin-2-amine] |
| 1250 nM | N#Cc1nc(-c2ccc(-c3ccccc3C(=O)N3CCOCC3)cc2F)cnc1N [Example 416, 3-Amino-6-[3-fluoro-2′-(morpholin-4-ylcarbonyl)biphenyl-4-yl]pyrazine-2-carbonitrile] |
| 1250 nM | CC(C)(C)NS(=O)(=O)c1ccccc1-c1ccc(-c2ncc3cc[nH]c3n2)c(F)c1 [Example 418, N-tert-Butyl-3′-fluoro-4′-(7H-pyrrolo[2,3-d]pyrimidin-2-yl)biphenyl-2-sulfonamide] |
| > 10000 nM | CC(=O)Nc1ccccc1-c1ccc(-c2cnc(N)cn2)c(F)c1 [Example 459, N-[4′-(5-Aminopyrazin-2-yl)-3′-fluorobiphenyl-2-yl]acetamide] |
| > 10000 nM | NC(=O)Nc1ccccc1-c1ccc(-c2cnc(N)cn2)c(F)c1 [Example 460, 1-[4′-(5-Aminopyrazin-2-yl)-3′-fluorobiphenyl-2-yl]u rea] |
| 982 nM | Cc1c(-c2ccccc2NS(C)(=O)=O)ccc(-c2cnc(N)cn2)c1F [Example 463, N-[4′-(5-Aminopyrazin-2-yl)-3′-fluoro-2′-methylbiphenyl-2-yl]methanesulfonamide] |
| 620 nM | Nc1cnc(-c2ccc(-c3ccccc3F)cc2F)cn1 [Example 468, 5-(2′,3-Difluorobiphenyl-4-yl)pyrazin-2-amine] |
| 620 nM | Cc1ccccc1-c1ccc(-c2cnc(N)cn2)c(F)c1 [Example 470, 5-(3-Fluoro-2′-methylbiphenyl-4-yl)pyrazin-2-amine] |
| 750 nM | Nc1cnc(-c2ccc(-c3ccccc3OC(F)(F)F)cc2F)cn1 [Example 475, 5-[3-Fluoro-2′-(trifluoromethoxy)biphenyl-4-yl]pyrazin-2-amine] |
| 250 nM | Nc1cnc(-c2ccc(-c3c(F)cccc3F)cc2F)cn1 [Example 478, 5-(2′,3,6′-Trifluorobiphenyl-4-yl)pyrazin-2-amine] |
| 354 nM | CCc1ccccc1-c1ccc(-c2cnc(N)cn2)c(F)c1 [Example 480, 5-(2′-Ethyl-3-fluorobiphenyl-4-yl)pyrazin-2-amine] |
| 120 nM | CC(C)c1ccccc1-c1ccc(-c2cnc(N)cn2)c(F)c1 [Example 482, 5-[3-Fluoro-2′-(1-methylethyl)biphenyl-4-yl]pyrazin-2-amine] |
| > 10000 nM | Nc1cnc(-c2ccc(-c3ccccc3C(=O)O)cc2F)cn1 [Example 485, 4′-(5-Aminopyrazin-2-yl)-3′-fluorobiphenyl-2-carboxylic acid] |
| 2500 nM | NC(=O)c1ccccc1-c1ccc(-c2cnc(N)cn2)c(F)c1 [Example 486, 4′-(5-Aminopyrazin-2-yl)-3′-fluorobiphenyl-2-carboxamide] |
| 433 nM | Nc1ncc(-c2ccc(-c3ccccc3C(=O)N3CCOCC3)cc2F)cn1 [Example 499, 5-[3-Fluoro-2′-(morpholin-4-ylcarbonyl)biphenyl-4-yl]pyrimidin-2-amine] |
| 768 nM | C[C@H](NC(=O)c1ccccc1-c1ccc(-c2cnc(N)nc2)c(F)c1)C(F)(F)F [Example 504, 4′-(2-Aminopyrimidin-5-yl)-3′-fluoro-N-[(1S)-2,2,2-trifluoro-1-methylethyl]biphenyl-2-carboxamide] |

| Ki | Compound |
| --- | --- |
| > 10000 nM | Nc1cnc(-c2ccc(-c3ccccc3C(=O)N3CCNCC3)cc2F)cn1 [Example 506, 5-[3-Fluoro-2′-(piperazin-1-ylcarbonyl)biphenyl-4-yl]pyrazin-2-amine] |
| > 10000 nM | CC(=O)N1CCN(C(=O)c2ccccc2-c2ccc(-c3cnc(N)cn3)c(F)c2)CC1 [Example 507, 5-{2′-[(4-Acetylpiperazin-1-yl)carbonyl]-3-fluorobiphenyl-4-yl}pyrazin-2-amine] |
| 790 nM | Nc1cnc(-c2ccc(-c3ccccc3C(=O)NC3CCCCC3)cc2F)cn1 [Example 508, 4′-(5-Aminopyrazin-2-yl)-N-cyclohexyl-3′-fluorobiphenyl-2-carboxamide] |
| 1940 nM | CNC(=O)c1ccccc1-c1ccc(-c2cnc(N)cn2)c(F)c1 [Example 510, 4′-(5-Aminopyrazin-2-yl)-3′-fluoro-N-methylbiphenyl-2-carboxamide] |
| > 10000 nM | C[C@@H](CO)NC(=O)c1ccccc1-c1ccc(-c2cnc(N)cn2)c(F)c1 [Example 513, 4′-(5-Aminopyrazin-2-yl)-3′-fluoro-N-[(1S)-2-hydroxy-1-methylethyl]biphenyl-2-carboxamide] |
| > 10000 nM | Nc1cnc(-c2ccc(-c3ccccc3C(=O)N3CCC(N)CC3)cc2F)cn1 [Example 515, 5-{2′-[(4-Aminopiperidin-1-yl)carbonyl]-3-fluorobiphenyl-4-yl}pyrazin-2-amine] |
| > 10000 nM | Nc1ncc(-c2ccc(-c3ccccc3C(=O)N3CCS(=O)(=O)CC3)cc2F)cn1 [Example 516, 5-{2′-[(1,1-Dioxidothiomorpholin-4-yl)carbonyl]-3-fluorobiphenyl-4-yl}pyrimidin-2-amine] |
| > 10000 nM | C[C@@H](CO)NC(=O)c1ccccc1-c1ccc(-c2cnc(N)nc2)c(F)c1 [Example 517, 4′-(2-Aminopyrimidin-5-yl)-3′-fluoro-N-[(1S)-2-hydroxy-1-methylethyl]biphenyl-2-carboxamide] |
| > 10000 nM | C[C@@H](NC(=O)c1ccccc1-c1ccc(-c2cnc(N)nc2)c(F)c1)C(F)(F)F [Example 518, 4′-(2-Aminopyrimidin-5-yl)-3′-fluoro-N-[(1R)-2,2,2-trifluoro-1-methylethyl]biphenyl-2-carboxamide] |
| > 10000 nM | Nc1cnc(-c2ccc(-c3ccccc3C(=O)N3CCNC(=O)C3)cc2F)cn1 [Example 519, 4-{[4′-(5-Aminopyrazin-2-yl)-3′-fluorobiphenyl-2-yl]carbonyl}piperazin-2-one] |
| > 10000 nM | Nc1ncc(-c2ccc(-c3ccccc3C(=O)N3CCNC(=O)C3)cc2F)cn1 [Example 520, 4-{[4′-(2-Aminopyrimidin-5-yl)-3′-fluorobiphenyl-2-yl]carbonyl}piperazin-2-one] |
| > 10000 nM | Nc1ncc(-c2ccc(-c3ccccc3Oc3ncccn3)cn2)cn1 [Example 566, 5-{5-[2-(Pyrimidin-2-yloxy)phenyl]pyridin-2-yl}pyrimidin-2-amine] |
| 1140 nM | Nc1ncc(-c2ccc(-c3ccccc3Oc3ccnc(N)n3)cn2)cn1 [Example 567, 4-{2-[6-(2-Aminopyrimidin-5-yl)pyridin-3-yl]phenoxy}pyrimidin-2-amine] |
| 2500 nM | Nc1ccnc(Oc2ccccc2-c2ccc(-c3cnc(N)nc3)nc2)n1 [Example 568, 5-(5-{2-[(4-Aminopyrimidin-2-yl)oxy]phenyl}pyridin-2-yl)pyrimidin-2-amine] |
| 370 nM | CN(C)S(=O)(=O)c1ccccc1-c1ccc(-c2cnc(N)cn2)cc1 [Example 572, 4′-(5-Aminopyrazin-2-yl)-N,N-dimethylbiphenyl-2-sulfonamide] |
| 114 nM | Nc1cnc(-c2ccc(-c3ccccc3S(=O)(=O)N3CCOCC3)cc2)cn1 [Example 573, 5-[2′-(Morpholin-4-ylsulfonyl)biphenyl-4-yl]pyrazin-2-amine] |
| 750 nM | CN(C)S(=O)(=O)c1ccccc1-c1ccc(-c2cnc(N)cn2)cc1F [Example 575, 4′-(5-Aminopyrazin-2-yl)-2′-fluoro-N,N-dimethylbiphenyl-2-sulfonamide] |
| > 10000 nM | CC(C)(C)NS(=O)(=O)c1ccccc1-c1ccc(-c2cn3c(C#N)cccc3n2)c(F)c1 [Example 584, N-tert-Butyl-4′-(5-cyanoimidazo[1,2-a]pyridin-2-yl)-3′-fluorobiphenyl-2-sulfonamide] |

| Compound | Ki |
| --- | --- |
| CC(C)(C)NS(=O)(=O)c1ccccc1-c1ccc(-c2cn3cc(C(N)=O)ccc3n2)c(F)c1 [Example 582, 2-[2′-(tert-Butylsulfamoyl)-3-fluorobiphenyl-4-yl]imidazo[1,2-a]pyridine-6-carboxamide] | > 10000 nM |
